Results as given in ChEMBL document CHEMBL1141813, “Activities of plant-derived phenols in a fibroblast cell culture model” (J Nat Prod, 1999).
The source made the active and inactive calls. The rule behind the calls is not given here.

Columns and labels:
[1] = (§1) Growth inhibition of BALB/c mouse cloned 3T3/A31 cells after 72 hrs by nigrosin assay; type: functional, cell-based; conditions: BALB/3T3, 72 h
BALB/3T3 [2] = assay: as §1; type: functional, cell-based
BALB/3T3 [3] = assay: Growth inhibition of BALB/c mouse cloned 3T3/A31 cells at 0.01 to 100 ug/mL after 72 hrs by nigrosin assay; type: functional, cell-based
BALB/3T3 [4] = assay: Growth inhibition of BALB/c mouse cloned 3T3/A31 cells at 10 to 100 ug/mL after 72 hrs by nigrosin assay; type: functional, cell-based
BALB/3T3 [5] = assay: Growth inhibition of BALB/c mouse cloned 3T3/A31 cells at 100 ug/mL after 72 hrs by nigrosin assay; type: functional, cell-based
BALB/3T3 [6] = assay: Stimulation of BALB/c mouse cloned 3T3/A31 cells growth at 0.01 to 0.1 ug/mL; type: functional
BALB/3T3 [7] = assay: Cytotoxicity against BALB/c mouse cloned 3T3/A31 cells at 1 to 100 ug/mL after 72 hrs by nigrosin assay; type: functional, cell-based
BALB/3T3 [8] = assay: Stimulation of BALB/c mouse cloned 3T3/A31 cells growth at 0.01 to 1 ug/mL; type: functional
BALB/3T3 [9] = assay: Stimulation of BALB/c mouse cloned 3T3/A31 cells proliferation at 0.01 to 10 ug/mL; type: functional, cell-based
[10] = Stimulation of BALB/c mouse cloned 3T3/A31 cells proliferation at 0.01 ug/mL; type: functional, BALB/3T3

O=c1cc(-c2ccc(O)cc2)oc2cc(O)cc(O)c12 [APIGENIN]
IC50 [1]: 141 µM | Activity (BALB/3T3 [2]): Dose-dependent effect | Activity (BALB/3T3 [3]): Active

O=c1cc(-c2ccccc2)oc2cc(O)c(O)c(O)c12 [BAICALEIN]
IC50 [1]: 342 µM | Activity (BALB/3T3 [2]): Dose-dependent effect | Activity (BALB/3T3 [4]): Active

COc1ccc(-c2coc3cc(O)cc(O)c3c2=O)cc1 [BIOCHANIN]
IC50 [1]: 220 µM | Activity (BALB/3T3 [2]): Dose-dependent effect | Activity (BALB/3T3 [4]): Active

O=C(O)/C=C/c1ccc(O)c(O)c1 [CAFFEIC ACID]
IC50 [1]: 554 µM | Activity (BALB/3T3 [2]): Dose-dependent effect | Activity (BALB/3T3 [4]): Active

Oc1cc(O)c2c(c1)OC(c1ccc(O)c(O)c1)C(O)C2 (configuration not stated) [CATECHIN]
IC50 [1]: > 344 µM | Activity (BALB/3T3 [2]): Dose-dependent effect | Activity (BALB/3T3 [4]): Active

O=C(/C=C/c1ccc(O)c(O)c1)O[C@@H]1C[C@](O)(C(=O)O)C[C@@H](O)[C@H]1O [CHLOROGENIC ACID]
IC50 [1]: > 280 µM | Activity (BALB/3T3 [2]): Dose-dependent effect | Activity (BALB/3T3 [5]): Active | Activity (BALB/3T3 [6]): 5.3%

O=c1cc(-c2ccccc2)oc2cc(O)cc(O)c12 [CHRYSIN]
IC50 [1]: 248 µM | Activity (BALB/3T3 [2]): Dose-dependent effect | Activity (BALB/3T3 [7]): Active

O=C(O)/C=C/c1ccccc1 [CINNAMIC ACID]
IC50 [1]: 671 µM | Activity (BALB/3T3 [2]): Dose-dependent effect | Activity (BALB/3T3 [4]): Active

O=c1cc(-c2ccccc2)oc2ccccc12 [FLAVONE]
IC50 [1]: 287 µM | Activity (BALB/3T3 [2]): Dose-dependent effect | Activity (BALB/3T3 [7]): Active

O=c1c(-c2ccc(O)cc2)coc2cc(O)cc(O)c12 [GENISTEIN]
IC50 [1]: 184 µM | Activity (BALB/3T3 [2]): Dose-dependent effect | Activity (BALB/3T3 [7]): Active | Activity (BALB/3T3 [6]): 5.3%

COc1ccc(/C=C/C(=O)O)cc1OC [O,O'-DIMETHYLCAFFEIC ACID]
IC50 [1]: > 480 µM | Activity (BALB/3T3 [2]): Dose-dependent effect | Activity (BALB/3T3 [4]): Active

O=c1c(O)c(-c2ccc(O)c(O)c2)oc2cc(O)cc(O)c12 [QUERCETIN]
IC50 [1]: 217 µM | Activity (BALB/3T3 [2]): Dose-dependent effect | Activity (BALB/3T3 [4]): Active | Activity (BALB/3T3 [6]): 5.3%

C[C@@H]1O[C@@H](Oc2c(-c3ccc(O)c(O)c3)oc3cc(O)cc(O)c3c2=O)[C@H](O)[C@H](O)[C@H]1O [QUERCITRIN]
IC50 [1]: > 223 µM | Activity (BALB/3T3 [2]): Dose-dependent effect | Activity (BALB/3T3 [5]): Active | Activity (BALB/3T3 [8]): 4.9%

C[C@@H]1O[C@@H](OC[C@H]2O[C@@H](Oc3c(-c4ccc(O)c(O)c4)oc4cc(O)cc(O)c4c3=O)[C@H](O)[C@@H](O)[C@@H]2O)[C@H](O)[C@H](O)[C@H]1O [RUTIN]
IC50 [1]: > 164 µM | Activity (BALB/3T3 [2]): Dose-dependent effect | Activity (BALB/3T3 [9]): Active | Activity [10]: 30.4%
